{
  "source": "patent US20220252625A1",
  "about": "“TREATMENT AND DIAGNOSIS OF CHRONIC INFLAMMATORY CONDITIONS IN THE LOWER URINARY TRACT” (SELECTIMMUNE PHARMA AB, priority 2019, published 2022)",
  "key": {"Substance P [1]": {"system": "Substance P", "assay": "Ten-patient CPPS trial: urine neuropeptides", "format": "in vivo, human", "conditions": "P<0.001", "method": "A significant reduction in pain, urgency and frequency of urination was recorded in 9/10 patients (FIGS. 7c, 7d and 7e). Laboratory samples were obtained at diagnosis, after the initiation of anakinra treatment (n=10), during the “treatment break” and after continuation of anakinra treatment (n=9). Urine neuropeptides involved in the pain response (Substance P) were inhibited, with a biphasic response following the symptom score (FIG. 7f)."}, "[2]": {"system": "patients with CPPS (Bladder, Urethral and Prostate Pain phenotype)", "assay": "Clinical study, nine CPPS patients: symptom scoring (frequency, pain, QoL), side effects", "format": "in vivo, human", "conditions": "for clinical response in the detailed patient description, words: one patient per block (Patient 1-9); for Long-term follow-up: Comment: s.c. 100 mg long-term regimen, observation 24-397 days", "source_text": "(§1) The effect of anakinra in the treatment of CPPS was studied in a clinical study. Inclusion criteria were CPPS mainly with the Bladder Pain phenotype, but also the with the Urethral and Prostate Pain phenotype. Exclusion criteria were uncontrolled diabetes mellitus, treatment for malignant disease within the preceding 10 years, pregnancy and age <18 years and ongoing infectious diseases, including urinary tract infections, and neutropenia (<1.5×10^9/L). Patients gave informed consent for the use of unidentified personal clinical data for research purposes. Included patients were examined using clinical standard methods to rule out any ongoing disease. Blood and serum for hemoglobulin, liver and kidney function tests and White Blood Cell (WBC) counts were analysed. Urine was obtained for dip stick test (leukocytesteras for WBC estimation, the nitur test for ruling out bacteriuria), standard urinary Interleukins (IL6, IL8 and IL1b) and for urine culture. Cystoscopy and CT urography were performed in all patients. Blood and serum analysis and cystoscopy were repeated approximately two weeks after the start of treatment, and after approximately three months. Nine patients were recruited (Table 2).\nAfter inclusion, patients were treated with anakinra 100 mg by self-administrated subcutaneous injection, repeated once daily as a maximum, or (if relief of symptoms and pain) on demand when symptoms or pain recurred. Regularly symptom scoring on frequency, supra-pubic/bladder pain/prostate/urethral pain and Quality of Life was performed to evaluate treatment effect."}, "[3]": {"system": "neuroinflammation and IL-1-dependent gene expression", "assay": "Ten-patient CPPS trial: gene expression analysis of peripheral blood RNA", "format": "in vivo, human", "source_text": "Blood samples for DNA- and RNA-analyses as well as urine samples for proteomics are obtained throughout the study."}, "[4]": {"system": "WBC and Interleukins (IL6, IL8 and IL1b) in urine", "assay": "Nine-patient study: estimated WBC and Interleukins in urine", "format": "in vivo, human", "conditions": "prior, during or after treatment", "source_text": "as §1"}, "NK1R and its ligand SP": {"system": "NK1R and its ligand SP", "conditions": "mice; cited from earlier work"}, "Substance P [5]": {"system": "Substance P", "assay": "BPS trial: urine Substance P / neuropeptide levels", "format": "in vivo, human", "conditions": "for urine SP / neuropeptide levels, words: in vivo", "source_text": "a) Schematic of the study protocol. Ten patients with a long history of BPS (ref EAU guidelines) were enrolled after informed consent and instructed to fill in a questionnaire detailing frequency of urination, pain, frequency of pain medication and quality of life. Laboratory samples were obtained at diagnosis, after the initiation of Kineret treatment (n=10), during the “treatment break” and after continuation of Kineret treatment (n=9). Neuropeptides involved in the pain response (Substance P) were quantified in urine. Peripheral blood RNA was subjected to genome wide transcriptomic analysis to define molecular effects of Kineret treatment."}, "murine cystitis model": {"system": "murine cystitis model", "conditions": "mice, cited from earlier work"}, "[6]": {"conditions": "post treatment, individual patients"}, "[7]": {"conditions": "pre treatment baseline, individual patients"}},
  "note": "Several values for one entry are separate records, joined by “and”; a condition that tells them apart may be missing. Identical values can stand only once. Entries after “also recorded” stand apart in the source; their conditions may differ. Like-named read-outs stand apart in the source and are kept apart here.",
  "data": [
    {"substance": "anakinra: interleukin-1 receptor antagonist (r-metHuIL-1ra) produced in Escherichia coli; recombinant, slightly modified version of the human interleukin-1 receptor antagonist protein", "values": [
      {"measurement": "urine neuropeptide (Substance P) levels, words", "setting": "Substance P [1]", "result": "markedly reduced; also recorded: inhibited"},
      {"measurement": "side effects", "setting": "[2]; 100 mg s.c.", "result": "sparse and mild; also recorded: two cases of skin reaction at the place of injection; also recorded: one case of headache post injection; also recorded: without side effects; also recorded: minor headache"},
      {"measurement": "Side effect", "setting": "[2]; 100 mg s.c., individual patients", "result": "local s.c. irritation; also recorded: not reported; also recorded: headache post inj"},
      {"measurement": "clinical response in the detailed patient description, words", "setting": "[2]; 100 mg s.c.", "result": "subjectively significantly improved with a clear reduction in frequency and local pain from the bladder; also recorded: pain relief followed immediately; also recorded: constant relief of symptoms; also recorded: the urge, frequency and bladder pain dramatically decreased; also recorded: the urgency and frequency was dramatically reduced; also recorded: relief of fever attacks and arthralgia, as well as reduced urgency and frequency"},
      {"measurement": "clinical response in the detailed patient description, words", "setting": "[2]; 100 mg s.c., listed as Anakinra", "result": "significant symptom and pain relief; also recorded: constant relief of symptoms"},
      {"measurement": "maximum effect generally lasted", "setting": "[2]; after one s.c. inj. of 100 mg", "result": "2 to 3", "unit": "days"},
      {"measurement": "maximum effect on symptoms seen within", "setting": "[2]; after one s.c. inj. of 100 mg, all nine patients", "result": "1 to 24", "unit": "h"},
      {"measurement": "symptoms as measured by symptom scoring, words", "setting": "[2]; all patients", "result": "dramatically reduced symptoms"},
      {"measurement": "treatment effect during long-term follow-up, words", "setting": "[2]; all patients", "result": "consistent"},
      {"measurement": "experienced quality of life (QoL), words", "setting": "[2]; human, in vivo", "result": "increased in all patients; also recorded: highly increased, or increased"},
      {"measurement": "number of micturitions at night-time, words", "setting": "[2]; human, in vivo", "result": "generally reduced"},
      {"measurement": "number of micturitions during daytime, words", "setting": "[2]; human, in vivo", "result": "reduced in all patients"},
      {"measurement": "pain experienced by the patients, words", "setting": "[2]; human, in vivo", "result": "decreased dramatically"},
      {"measurement": "patients completely free from pain", "setting": "[2]; of nine patients", "result": "five out of the nine"},
      {"measurement": "Frequency (nycturia) post (number of micturations during nighttime)", "setting": "[2]; [6]", "result": "(0) and (1) (6×) and (2)"},
      {"measurement": "Frequency post (number of micturations during daytime)", "setting": "[2]; [6]", "result": "5 (2×) and 4 (2×) and 6 (3×) and 8"},
      {"measurement": "Frequency (nycturia) pre (number of micturations during nighttime)", "setting": "[2]; [7]", "result": "(1-2) and (5) (3×) and (3) (2×) and (4) and (1)"},
      {"measurement": "Frequency pre (number of micturations during daytime)", "setting": "[2]; [7]", "result": "12 (4×) and 11 and 8 (2×) and 7"},
      {"measurement": "Long-term follow-up: Comment", "setting": "[2]; individual patients, 100 mg s.c. dosing 1 per 2-4 weeks", "result": "increased QoL,; also recorded: symptom free"},
      {"measurement": "Long-term follow-up: Comment", "setting": "[2]; individual patients, 100 mg s.c. dosing 1 per 2-3 days", "result": "highly increased QoL"},
      {"measurement": "Long-term follow-up: Comment", "setting": "[2]; individual patients, 100 mg s.c. dosing 1 per day", "result": "highly increased QoL,; also recorded: planned cystectomy postponed"},
      {"measurement": "Long-term follow-up: Comment", "setting": "[2]; individual patients, 100 mg s.c. dosing 1 per week", "result": "highly increased QoL; also recorded: highly increased QoL,; also recorded: highly increased QoL;"},
      {"measurement": "QoL reduction post", "setting": "[2]; score 0-6, 0 not reduced QoL, post treatment, individual patients", "result": "2 (2×) and 1 (2×) and 0 (5×)"},
      {"measurement": "Pain post", "setting": "[2]; score 0-6, 0 symptom-free, post treatment, individual patients", "result": "2 (2×) and 1 (2×) and 0 (5×)"},
      {"measurement": "Pain pre", "setting": "[2]; score 0-6, 6 severe pain, pre treatment baseline, individual patients", "result": "5 (3×) and 5-6 and 6 and 4 (4×)"},
      {"measurement": "QoL reduction pre", "setting": "[2]; score 0-6, 6 severely reduced QoL, pre treatment baseline, individual patients", "result": "5 (3×) and 5-6 and 6 (2×) and 4 (3×)"},
      {"measurement": "gene expression at the RNA level, words", "setting": "[3]", "result": "inhibited neuroinflammation and IL-1-dependent gene expression; also recorded: reduction in neuro-inflammation"},
      {"measurement": "estimated WBC and Interleukins in urine, words", "setting": "[4]", "result": "not significantly increased"},
      {"measurement": "expression of NK1R and SP in the bladder mucosa, words", "setting": "NK1R and its ligand SP", "result": "reduced the expression of the pain receptor NK1R and its ligand SP"},
      {"measurement": "patients with reduced SP levels", "setting": "Substance P [5]; first treatment round", "result": "9/10"},
      {"measurement": "urine SP / neuropeptide levels, words", "setting": "Substance P [5]", "result": "markedly decreased"},
      {"measurement": "urine SP / neuropeptide levels, words", "setting": "Substance P [5]; listed as Kineret", "result": "rapid reduction"},
      {"measurement": "bacterial clearance, words", "setting": "murine cystitis model", "result": "accelerate bacterial clearance"},
      {"measurement": "bladder inflammation, words", "setting": "murine cystitis model", "result": "dramatically reduce bladder inflammation"},
      {"measurement": "bacterial clearance, words", "setting": "murine cystitis model; listed as Kineret", "result": "increased bacterial clearance"},
      {"measurement": "bladder inflammation, words", "setting": "murine cystitis model; listed as Kineret", "result": "dramatically reduced bladder inflammation"}
    ]}
  ]
}
